Read-outs that look alike come from different tables or passages of the source.
Test: Bioavailability in the baboon: plasma levels of omoconazole after oral administration (microbiological agar diffusion assay, test germ Candida macedoniensis)
Assay type: in vivo, babouin
Conditions: fasted baboons
Description: La biodisponibilité des compositions pharmaceutiques selon l'invention a été étudiée chez le babouin en comparaison avec le produit (I) seul.
Les études ont été conduites à la dose de 100 mg/kg d'omoconazole et les produits ont été administrés aux singes à jeun par sonde gastrique. […] Les dosages des taux plasmatiques d'omoconazole ont été effectués par une méthode microbiologique réalisée à l'aide d'une technique de diffusion en milieu gélosé avec comme germe test Candida macedoniensis.
Des essais ont été effectués selon la même méthode, avec les formulations des exemples 4, 5, 6, 9 et 14. Pour les 3 premiers cas, les formulations ont été administrées telles quelles (solution) tandis que les compositions des exemples 9 et 14 et l'omoconazole ont été administrés dans des gélules No. 2. […]

SMILES: C/C(=C(/OCCOc1ccc(Cl)cc1)c1ccc(Cl)cc1Cl)n1ccnc1 [Omoconazole]
- AUC (baboon, 100 mg/kg omoconazole oral, mean of 4 animals, Ex 4, 5, 6 given as such, Ex 9, 14 and omoconazole in No. 2 capsules, read-out: Aire sous la courbe): 11600 ng·h/mL
- Cmax (baboon, 100 mg/kg omoconazole oral, mean of 4 animals, Ex 4, 5, 6 given as such, Ex 9, 14 and omoconazole in No. 2 capsules, read-out: Concentration maximale): 1350 ng/mL
- Tmax (baboon, 100 mg/kg omoconazole oral, mean of 4 animals, Ex 4, 5, 6 given as such, Ex 9, 14 and omoconazole in No. 2 capsules, read-out: Temps de C. Max.): 5.5 h
- AUC at 24 h (baboon, po, 100 mg/kg omoconazole by gastric tube, mean of 3 animals, sampling up to 24 h, read-out: aire sous la courbe): 11500 ng·h/mL
- Cmax (100 mg/kg omoconazole by gastric tube, mean of 3 animals): 1,35 µg/ml

Reference: patent EP0117811A2, “Fungicidal pharmaceutical compositions for oral administration” (SANOFI S.A., priority 1983, dated 1984)
